Where two headings read alike, the source gives them in different places. Positions of bridges follow the written chain, without caps; N, C: chain ends. Non-standard residues stand in square brackets, D forms with d. Residues, ends and D or L forms follow the SMILES beside them.
Experiment: Biodistribution in B16/F1 melanoma-bearing C57 mice
Assay type: in vivo
Details: female, C57, mouse, iv, total radioactivity
Description: All the animal studies were conducted in compliance with Institutional Animal Care and Use Committee approval. The pharmacokinetics of ^99mTc-RGD-Lys-(Arg^11)CCMSH was determined in B16/F1 melanoma-bearing C57 female mice (Harlan, Indianapolis, Ind.). C57 mice were subcutaneously inoculated on the right flank with 1×10^6 B16/F1 cells. The weight of tumors reached approximately 0.2 g 10 days post cell inoculation. Each melanoma-bearing mouse was injected with 0.037 MBq of ^99mTc-RGD-Lys-(Arg^11)CCMSH via the tail vein. Groups of 5 mice were sacrificed at 0.5, 2, 4 and 24 h post-injection, and tumors and organs of interest were harvested, weighed and counted. Blood values were taken as 6.5% of the whole-body weight. The MC1 receptor specificity of the tumor uptake was determined at 2 h post-injection by co-injecting ^99mTc-RGD-Lys-(Arg^11)CCMSH with 10 μg (6.1 nmol) of unlabeled NDP-MSH, a linear α-MSH peptide analogue with picomolar affinity for the MC1 receptors present on murine melanoma cells. The co-injection of 3.5 μg (6.1 nmol) of RGD peptide was performed to determine the αvβ3 integrin specificity of the tumor uptake 2 h post-injection. Statistical analysis was performed using the Student's t-test for unpaired data.
All the animal studies were conducted in compliance with Institutional Animal Care and Use Committee approval. The pharmacokinetics of ^99mTc-RGD-Arg-(Arg^11)CCMSH was determined in B16/F1 melanoma-bearing C57 female mice (Harlan, Indianapolis, Ind.). C57 mice were subcutaneously inoculated on the right flank with 1×10^6 B16/F1 cells. The weight of tumors reached approximately 0.2 g 10 days post cell inoculation. Each melanoma-bearing mouse was injected with 0.037 MBq of ^99mTc-RGD-Arg-(Arg^11)CCMSH via the tail vein. Groups of 5 mice were sacrificed at 0.5, 2, 4 and 24 h post-injection, and tumors and organs of interest were harvested, weighed and counted. Blood values were taken as 6.5% of the whole-body weight. The MC1 receptor specificity of the tumor uptake was determined at 2 h post-injection by co-injecting ^99mTc-RGD-Arg-(Arg^11)CCMSH with 10 μg (6.1 nmol) of unlabeled NDP-MSH. The co-injection of 3.5 μg (6.1 nmol) of RGD peptide was performed to determine the αvβ3 integrin specificity of the tumor uptake at 2 h post-injection.

- tissue uptake at 2 h (skin, 0.037 MBq, 2 h post-injection, read-out: Skin, Percentage Injected Dose/gram): 1.29 ± 0.32 %ID/g
- tissue uptake at 4 h (skin, 0.037 MBq, 4 h post-injection, read-out: Skin, Percentage Injected Dose/gram): 0.82 ± 0.22 %ID/g
- tissue uptake at 24 h (skin, 0.037 MBq, 24 h post-injection, read-out: Skin, Percentage Injected Dose/gram): 0.75 ± 0.13 %ID/g
- tissue uptake at 2 h (skin, 2 h post-injection, NDP blockade (10 μg NDP-MSH co-injected), read-out: Skin, Percentage Injected Dose/gram): 1.26 ± 0.14 %ID/g
- tissue uptake at 2 h (skin, 2 h post-injection, RGD blockade (3.5 μg RGD co-injected), read-out: Skin, Percentage Injected Dose/gram): 0.95 ± 0.38 %ID/g
- tissue uptake at 0.5 h (spleen, 0.037 MBq, 0.5 h post-injection, read-out: Spleen, Percentage Injected Dose/gram): 2.73 ± 0.8 %ID/g
- tissue uptake at 2 h (spleen, 0.037 MBq, 2 h post-injection, read-out: Spleen, Percentage Injected Dose/gram): 1.17 ± 0.57 %ID/g
- tissue uptake at 4 h (spleen, 0.037 MBq, 4 h post-injection, read-out: Spleen, Percentage Injected Dose/gram): 1.75 ± 0.55 %ID/g
- tissue uptake at 24 h (spleen, 0.037 MBq, 24 h post-injection, read-out: Spleen, Percentage Injected Dose/gram): 1.45 ± 0.37 %ID/g
- tissue uptake at 2 h (spleen, 2 h post-injection, NDP blockade (10 μg NDP-MSH co-injected), read-out: Spleen, Percentage Injected Dose/gram): 1.53 ± 0.12 %ID/g
- tissue uptake at 2 h (spleen, 2 h post-injection, RGD blockade (3.5 μg RGD co-injected), read-out: Spleen, Percentage Injected Dose/gram): 0.67 ± 0.38 %ID/g
- tissue uptake at 0.5 h (stomach, 0.037 MBq, 0.5 h post-injection, read-out: Stomach, Percentage Injected Dose/gram): 4.3 ± 1.78 %ID/g
- tissue uptake at 2 h (stomach, 0.037 MBq, 2 h post-injection, read-out: Stomach, Percentage Injected Dose/gram): 2.75 ± 1.71 %ID/g
- tissue uptake at 4 h (stomach, 0.037 MBq, 4 h post-injection, read-out: Stomach, Percentage Injected Dose/gram): 3.44 ± 0.83 %ID/g
- tissue uptake at 24 h (stomach, 0.037 MBq, 24 h post-injection, read-out: Stomach, Percentage Injected Dose/gram): 0.47 ± 0.17 %ID/g
- tissue uptake at 2 h (stomach, 2 h post-injection, NDP blockade (10 μg NDP-MSH co-injected), read-out: Stomach, Percentage Injected Dose/gram): 2.4 ± 0.49 %ID/g
- tissue uptake at 2 h (stomach, 2 h post-injection, RGD blockade (3.5 μg RGD co-injected), read-out: Stomach, Percentage Injected Dose/gram): 2.03 ± 1.39 %ID/g
- Fold change in tumor/kidney uptake ratio versus ^99mTc-RGD-Lys-(Arg^11)CCMSH at 0.5 h (tumor and kidneys, 0.037 MBq, 0.5 h post-injection, read-out: Tumor/kidney uptake ratio, times that of ^99mTc-RGD-Lys-(Arg^11)CCMSH): 2.38
- Fold change in tumor/kidney uptake ratio versus ^99mTc-RGD-Lys-(Arg^11)CCMSH at 2 h (tumor and kidneys, 0.037 MBq, 2 h post-injection, read-out: Tumor/kidney uptake ratio, times that of ^99mTc-RGD-Lys-(Arg^11)CCMSH): 2.27
- Fold change in tumor/kidney uptake ratio versus ^99mTc-RGD-Lys-(Arg^11)CCMSH at 4 h (tumor and kidneys, 0.037 MBq, 4 h post-injection, read-out: Tumor/kidney uptake ratio, times that of ^99mTc-RGD-Lys-(Arg^11)CCMSH): 2.44
- tissue uptake at 0.5 h (tumor, 0.037 MBq, 0.5 h post-injection, read-out: Tumor, Percentage Injected Dose/gram): 14.1 ± 2.42 %ID/g
- tissue uptake at 2 h (tumor, 0.037 MBq, 2 h post-injection, read-out: Tumor, Percentage Injected Dose/gram): 21.4 ± 3.74 %ID/g
- tissue uptake at 4 h (tumor, 0.037 MBq, 4 h post-injection, read-out: Tumor, Percentage Injected Dose/gram): 16.1 ± 2 %ID/g
- tissue uptake at 24 h (tumor, 0.037 MBq, 24 h post-injection, read-out: Tumor, Percentage Injected Dose/gram): 6.81 ± 3.71 %ID/g
- tissue uptake at 2 h (tumor, 2 h post-injection, NDP blockade (10 μg NDP-MSH co-injected), read-out: Tumor, Percentage Injected Dose/gram): 1.96 ± 0.71 %ID/g
- tissue uptake at 2 h (tumor, 2 h post-injection, RGD blockade (3.5 μg RGD co-injected), read-out: Tumor, Percentage Injected Dose/gram): 16.9 ± 2.69 %ID/g
- tissue to tissue ratio at 0.5 h (tumor/blood, 0.037 MBq, 0.5 h post-injection, read-out: Uptake Ratio Tumor/Blood): 3.87
- tissue to tissue ratio at 2 h (tumor/blood, 0.037 MBq, 2 h post-injection, read-out: Uptake Ratio Tumor/Blood): 38.9
- tissue to tissue ratio at 4 h (tumor/blood, 0.037 MBq, 4 h post-injection, read-out: Uptake Ratio Tumor/Blood): 22.6
- tissue to tissue ratio at 24 h (tumor/blood, 0.037 MBq, 24 h post-injection, read-out: Uptake Ratio Tumor/Blood): 28.4
- tissue to tissue ratio at 2 h (tumor/blood, 2 h post-injection, NDP blockade (10 μg NDP-MSH co-injected), read-out: Uptake Ratio Tumor/Blood): 4.17
- tissue to tissue ratio at 2 h (tumor/blood, 2 h post-injection, RGD blockade (3.5 μg RGD co-injected), read-out: Uptake Ratio Tumor/Blood): 422
- tissue to tissue ratio at 0.5 h (tumor/kidneys, 0.037 MBq, 0.5 h post-injection, read-out: Uptake Ratio Tumor/Kidneys): 0.38
- tissue to tissue ratio at 2 h (tumor/kidneys, 0.037 MBq, 2 h post-injection, read-out: Uptake Ratio Tumor/Kidneys): 0.5
- tissue to tissue ratio at 4 h (tumor/kidneys, 0.037 MBq, 4 h post-injection, read-out: Uptake Ratio Tumor/Kidneys): 0.44
- tissue to tissue ratio at 24 h (tumor/kidneys, 0.037 MBq, 24 h post-injection, read-out: Uptake Ratio Tumor/Kidneys): 0.42
- tissue to tissue ratio at 2 h (tumor/kidneys, 2 h post-injection, NDP blockade (10 μg NDP-MSH co-injected), read-out: Uptake Ratio Tumor/Kidneys): 0.06
- tissue to tissue ratio at 2 h (tumor/kidneys, 2 h post-injection, RGD blockade (3.5 μg RGD co-injected), read-out: Uptake Ratio Tumor/Kidneys): 0.44
- tissue to tissue ratio at 0.5 h (tumor/liver, 0.037 MBq, 0.5 h post-injection, read-out: Uptake Ratio Tumor/Liver): 3.35
- tissue to tissue ratio at 2 h (tumor/liver, 0.037 MBq, 2 h post-injection, read-out: Uptake Ratio Tumor/Liver): 5.98
- tissue to tissue ratio at 4 h (tumor/liver, 0.037 MBq, 4 h post-injection, read-out: Uptake Ratio Tumor/Liver): 3.26
- tissue to tissue ratio at 24 h (tumor/liver, 0.037 MBq, 24 h post-injection, read-out: Uptake Ratio Tumor/Liver): 3.6
- tissue to tissue ratio at 2 h (tumor/liver, 2 h post-injection, NDP blockade (10 μg NDP-MSH co-injected), read-out: Uptake Ratio Tumor/Liver): 0.68
- tissue to tissue ratio at 2 h (tumor/liver, 2 h post-injection, RGD blockade (3.5 μg RGD co-injected), read-out: Uptake Ratio Tumor/Liver): 7.34
- tissue to tissue ratio at 0.5 h (tumor/lung, 0.037 MBq, 0.5 h post-injection, read-out: Uptake Ratio Tumor/Lung): 1.87
- tissue to tissue ratio at 2 h (tumor/lung, 0.037 MBq, 2 h post-injection, read-out: Uptake Ratio Tumor/Lung): 10.4
- tissue to tissue ratio at 4 h (tumor/lung, 0.037 MBq, 4 h post-injection, read-out: Uptake Ratio Tumor/Lung): 15.9
- tissue to tissue ratio at 24 h (tumor/lung, 0.037 MBq, 24 h post-injection, read-out: Uptake Ratio Tumor/Lung): 8.96
- tissue to tissue ratio at 2 h (tumor/lung, 2 h post-injection, NDP blockade (10 μg NDP-MSH co-injected), read-out: Uptake Ratio Tumor/Lung): 1.38
- tissue to tissue ratio at 2 h (tumor/lung, 2 h post-injection, RGD blockade (3.5 μg RGD co-injected), read-out: Uptake Ratio Tumor/Lung): 13.9
- tissue to tissue ratio at 0.5 h (tumor/muscle, 0.037 MBq, 0.5 h post-injection, read-out: Uptake Ratio Tumor/Muscle): 7.87
- tissue to tissue ratio at 2 h (tumor/muscle, 0.037 MBq, 2 h post-injection, read-out: Uptake Ratio Tumor/Muscle): 102
- tissue to tissue ratio at 4 h (tumor/muscle, 0.037 MBq, 4 h post-injection, read-out: Uptake Ratio Tumor/Muscle): 50.2
- tissue to tissue ratio at 24 h (tumor/muscle, 0.037 MBq, 24 h post-injection, read-out: Uptake Ratio Tumor/Muscle): 27.2
- tissue to tissue ratio at 2 h (tumor/muscle, 2 h post-injection, NDP blockade (10 μg NDP-MSH co-injected), read-out: Uptake Ratio Tumor/Muscle): 3.92
- tissue to tissue ratio at 2 h (tumor/muscle, 2 h post-injection, RGD blockade (3.5 μg RGD co-injected), read-out: Uptake Ratio Tumor/Muscle): 60.3
- dose excreted at 0.5 h (urine, 0.037 MBq, 0.5 h post-injection, read-out: Urine, Percent injected dose): 43.1 ± 5.62%
- dose excreted at 2 h (urine, 0.037 MBq, 2 h post-injection, read-out: Urine, Percent injected dose (cleared through the urinary system)): 67.8 ± 6.28%
- dose excreted at 4 h (urine, 0.037 MBq, 4 h post-injection, read-out: Urine, Percent injected dose): 75.1 ± 3.61%
- dose excreted at 24 h (urine, 0.037 MBq, 24 h post-injection, read-out: Urine, Percent injected dose): 88.3 ± 1.64%
- dose excreted at 2 h (urine, 2 h post-injection, NDP blockade (10 μg NDP-MSH co-injected), read-out: Urine, Percent injected dose): 76.8 ± 3.01%
- dose excreted at 2 h (urine, 2 h post-injection, RGD blockade (3.5 μg RGD co-injected), read-out: Urine, Percent injected dose): 71.8 ± 5.07%
Structure (SMILES): CC(C)[C@H](NC(=O)[C@@H]1CCCN1C(=O)[C@H](CCCNC(=N)N)NC(=O)[C@H](CS)NC(=O)[C@H](Cc1c[nH]c2ccccc12)NC(=O)[C@H](CCCNC(=N)N)NC(=O)[C@@H](Cc1ccccc1)NC(=O)[C@H](Cc1c[nH]cn1)NC(=O)[C@H](CCC(=O)O)NC(=O)[C@H](CS)NC(=O)[C@H](CS)NC(=O)[C@H](CCCNC(=N)N)NC(=O)[C@@H]1CC(=O)N[C@@H](CCCNC(=N)N)C(=O)NCC(=O)N[C@@H](CC(=O)O)C(=O)N[C@H](Cc2ccc(O)cc2)C(=O)N1)C(N)=O [^99mTc-RGD-Arg-(Arg^11)CCMSH, metal not drawn] (RGD[dY]DRCCEH[dF]RWCRPV-NH2; lactam N-5)

Reference: patent US9005575B2, “Arg-Gly-Asp-conjugated alpha-melanocyte stimulating hormone hybrid peptide for use in diagnosing and treating melanoma, including metastatic melanoma and methods related to same” (STC.UNM, priority 2009, dated 2015)
